Experimental findings from US11332435B2, “Method for producing (3S)-3-(4-chloro-3-{[(2S,3R)-2-(4- chlorophenyl)-4,4,4-trifluoro-3-methylbutanoyl]amino}phenyl)-3-cyclo-propylpropanoic acid and the crystalline form thereof for use as a pharmaceutical ingredient” (Bayer Pharma Aktiengesellschaft, priority 2017, dated 2022) are described below.

Molecules are shown by their SMILES.

Data set [1] is described as follows: stability in the micronization process. It is filed as physicochemical.
Data set [2] can be described thus: bioavailability of the solid form. It counts as in vivo. The settings on record: crystalline form of modification 1.
Data set [3] in a line: thermodynamic stability of the solid form. It is filed as physicochemical. To be noted: crystalline modification 1 compared with amorphous form of WO 2012/139888.

For `C[C@H]([C@H](C(=O)Nc1cc([C@@H](CC(=O)O)C2CC2)ccc1Cl)c1ccc(Cl)cc1)C(F)(F)F` [Example I-1, (3S)-3-(4-chloro-3-{[(2S,3R)-2-(4-chlorophenyl)-4,4,4-trifluoro-3-methylbutanoyl]amino}phenyl)-3-cyclopropylpropanoic acid], in data set [1], the “stability in the micronization process (conversion, recrystallization)” value is on record as “stable in the micronization process”. In data set [2], the bioavailability result is given as “reproducible bioavailability”. For the same compound, the thermodynamic stability result in data set [3] was “higher thermodynamic stability”.
